{"source": "patent EP4501112A1", "about": "“PLANT DEFENSE ELICITORS” (Globachem NV, priority 2023, dated 2025)", "format_in_all_cases": "in vivo", "key": {"[1]": {"tested_on": "Winter wheat (cv. Keitum)", "assay": "Biostimulant effect of seed coating on winter wheat (greenhouse, root scans)", "description": "[table] Table 13. Biostimulant effect of ammonium pelargonate on winter wheat (cv. Keitum) 14 days after sowing"}, "[2]": {"tested_on": "Root knot nematode (Meloidogyne graminicola)", "assay": "Root knot nematode gall development on wheat roots after treatment", "conditions": "foliar spraying, stock solution 200 x diluted; 400 J2 per plant 24 hours after treatment; 14 days after inoculation", "protocol": "DISEASE/PEST: Root knot nematode (Meloidogyne graminicola) CROP: Triticum aestivum APPLICATION: Foliar application EXPERIMENT/TRIAL PROTOCOL: After seed germination, wheat plants were grown individually for 2 weeks in a PVC tube (18 cm height, 3 cm diameter) filled with a substrate of sand and a water-absorbing polymer (DCM Aquaperla). Plants were grown at 24 °C and supplied with Hoagland solution and water 3 times per week. They were treated after 2 weeks. Twenty-four hours after treatment they were inoculated with 400 nematode juveniles (second stage; J2) per plant. 8 individual plants were analyzed per treatment. Evaluation of nematode infection was done 14 days after inoculation. Development of galls on the roots was microscopically observed and counted. No females were observed yet at this early time point, in any of the treatments. The number of galls was reduced in the […], pelargonic acid ([…] decanoic acid (pm4) treated plants. Azelaic acid (pm3) had no effect on gall numbers in the used concentration. FORMULATION USED: […] PM1 is already formulated."}, "Leptosphaeria maculans": {"tested_on": "Leptosphaeria maculans", "assay": "Seed treatment lab trial against Leptosphaeria maculans in oilseed rape seedlings", "conditions": "for Emax: Plenodomus lingam, in Brassica napus, 144 h, 6 days after inoculation, read-out: % Efficacy", "description": "[table] Table 8: Efficacy assessment of fatty acids in seed treatment of Leptosphaeria maculans in oilseed rape (variety Helga)"}, "Fusarium culmorum": {"tested_on": "Fusarium culmorum", "assay": "whole plant or invertebrate", "conditions": "for Emax: Fusarium culmorum, in Triticum aestivum, 144 h, read-out: % Efficacy"}, "Spodoptera exigua": {"tested_on": "Spodoptera exigua", "assay": "S. exigua survival, larval weight and leaf damage on pea plants after foliar spray", "parameters": "key to plant damage (1 to 5 scale): 0=no damage or no sucking observed; 1=some damage or some sucking observed; 3=half leaf eaten or half of aphids sucking the leaf; 5=no leaf left or all insects sucking and reproducing", "conditions": "0.016 g in 5 mL water with 0.25% tween 20, foliar", "protocol": "DISEASE/PEST: Spodoptera exigua CROP: pea plants (Pisum sativum) APPLICATION: FOLIAR EXPERIMENT/TRIAL PROTOCOL: Peas were grown in pots in the greenhouse (4 plants/pot). […] Plants were sprayed with a small handheld sprayer. 5 ml of spraying volume was applied. First instar (L1) Spodoptera larvae were added to the plants 24h after the treatment. Plant damage, larval survival and larval weight were followed up for 12 days. […] Table 4. Effect on survival and leaf damage of S. exigua on P. sativum."}, "[3]": {"conditions": "seed coating 2 L/mt, 14 days after sowing"}, "[4]": {"conditions": "seed coating 2 L/mt, 14 days after sowing, relative to untreated check"}}, "note": "Where two headings read alike, the source gives them in different places.", "data": [{"compound": "CCCCCCCCC(=O)O.N", "note": "[Ammonium pelargonate]", "values": [{"measurement": "root length, surface and volume, tips and forks per plant", "setting": "[1]; coated seeds compared with untreated seedlings", "result": "Seeds coated with ammonium pelargonate showed an increase in root length, surface and volume and an increase in tips and forks per plant. (Table 12)"}, {"measurement": "Forks (#/plant)", "setting": "[1]; [3]", "result": "330.70 #/plant"}, {"measurement": "Fresh weight (g/plant)", "setting": "[1]; [3]", "result": 0.53, "unit": "g/plant"}, {"measurement": "Plant height (cm)", "setting": "[1]; [3]", "result": 22.5, "unit": "cm"}, {"measurement": "Root diameter (mm)", "setting": "[1]; [3]", "result": 0.27, "unit": "mm"}, {"measurement": "Root length (cm)", "setting": "[1]; [3]", "result": 142.1, "unit": "cm"}, {"measurement": "Root surface (cm^2)", "setting": "[1]; [3]", "result": 11.90, "unit": "cm^2"}, {"measurement": "Root volume (cm^3)", "setting": "[1]; [3]", "result": 0.08, "unit": "cm^3"}, {"measurement": "Tillers (#/plant)", "setting": "[1]; [3]", "result": "0.40 #/plant"}, {"measurement": "Tips (#/plant)", "setting": "[1]; [3]", "result": "1585.20 #/plant"}, {"measurement": "Forks (%UNCK)", "setting": "[1]; [4]", "result": 146.65, "unit": "%UNCK"}, {"measurement": "Fresh weight (%UNCK)", "setting": "[1]; [4]", "result": 99.81, "unit": "%UNCK"}, {"measurement": "Plant height (%UNCK)", "setting": "[1]; [4]", "result": 100.9, "unit": "%UNCK"}, {"measurement": "Root diameter (%UNCK)", "setting": "[1]; [4]", "result": 95.08, "unit": "%UNCK"}, {"measurement": "Root length (%UNCK)", "setting": "[1]; [4]", "result": 131.5, "unit": "%UNCK"}, {"measurement": "Root surface (%UNCK)", "setting": "[1]; [4]", "result": 124.21, "unit": "%UNCK"}, {"measurement": "Root volume (%UNCK)", "setting": "[1]; [4]", "result": 117.23, "unit": "%UNCK"}, {"measurement": "Tips (%UNCK)", "setting": "[1]; [4]", "result": 120.36, "unit": "%UNCK"}]}, {"compound": "O=C(O)CCCCCCCC(=O)O", "note": "[Azaleic acid, Azelaic acid]", "values": [{"measurement": "number of galls", "setting": "[2]", "result": "no effect"}, {"measurement": "Emax", "setting": "Leptosphaeria maculans; seed treatment 1.52 g/ton", "result": 100, "unit": "%"}, {"measurement": "Emax", "setting": "Leptosphaeria maculans; seed treatment 2.28 g/ton", "result": 100, "unit": "%"}, {"measurement": "Emax", "setting": "Leptosphaeria maculans; seed treatment 3.04 g/ton", "result": 100, "unit": "%"}, {"measurement": "Emax", "setting": "Leptosphaeria maculans; seed treatment 4.56 g/ton", "result": 80, "unit": "%"}, {"measurement": "Emax", "setting": "Leptosphaeria maculans; seed treatment 6.08 g/ton", "result": 80, "unit": "%"}, {"measurement": "Emax", "setting": "Leptosphaeria maculans; seed treatment 7.60 g/ton", "result": 80, "unit": "%"}]}, {"compound": "CCCCCCCC(=O)O", "note": "[Caprylic acid, caprylic acid]", "values": [{"measurement": "number of galls", "setting": "[2]", "result": "reduced"}, {"measurement": "Emax", "setting": "Leptosphaeria maculans; seed treatment 7.60 g/ton", "result": 80, "unit": "%"}, {"measurement": "Emax", "setting": "Fusarium culmorum; seed treatment 6.08 g/ton", "result": 80, "unit": "%"}, {"measurement": "Emax", "setting": "Fusarium culmorum; seed treatment 7.60 g/ton", "result": 80, "unit": "%"}]}, {"compound": "CCCCCCCCCC(=O)O", "note": "[Decanoic acid, decanoic acid]", "values": [{"measurement": "number of galls", "setting": "[2]", "result": "reduced"}, {"measurement": "Larval weight at day 12", "setting": "Spodoptera exigua; L1 larvae added 24h after treatment", "result": 196, "unit": "mg"}, {"measurement": "Number of larvae after 12 days", "setting": "Spodoptera exigua; L1 larvae added 24h after treatment, 22 larvae at start", "result": 18}, {"measurement": "plant damage (1 to 5 scale)", "setting": "Spodoptera exigua; followed up for 12 days", "result": 1}, {"measurement": "Emax", "setting": "Leptosphaeria maculans; seed treatment 2.28 g/ton", "result": 80, "unit": "%"}, {"measurement": "Emax", "setting": "Fusarium culmorum; seed treatment 4.56 g/ton", "result": 60, "unit": "%"}, {"measurement": "Emax", "setting": "Fusarium culmorum; seed treatment 6.08 g/ton", "result": 60, "unit": "%"}, {"measurement": "Emax", "setting": "Fusarium culmorum; seed treatment 7.60 g/ton", "result": 80, "unit": "%"}]}, {"compound": "Ammonium percholate", "values": [{"measurement": "% efficacy", "setting": "Leptosphaeria maculans; in vivo", "result": 70, "unit": "%"}, {"measurement": "% efficacy", "setting": "Fusarium culmorum; in vivo", "result": 60, "unit": "%"}]}]}
